Source: patent publication US4791215A, “Derivatives of glutamic acid and aspartic acid” (priority 1984, dated 1988)

Legend:
Type in all cases: in vivo, rats
[1] = Body weight on daily oral dosing
Experimental: (§1) In order to check the hypothesis that the anti-CCK activity shown by most of the compounds in question may be used to advantage in the treatment of anorexia in man or as an appetite stimulant for farm animals, the following experiment was carried out:
(§2) Male rats having a weight of about 160 g, divided into groups of 10 animals, were used. […]
(§3) The drug, in the form of the sodium salt, was dissolved in water and administered in a volume of 10 ml of H2 O/kg while the control group received an equal volume of the solvent alone.
(§4) The following tables give the average values of the food consumption and the average weight of each group of animals, calculated weekly as well as the Student's t value calculated from the various treated groups and the group of control animals.

[2] = system: activity of analgesic drugs; experiment: Hot-plate test, potentiation of analgesic drugs (Experiment 2)
In short: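 Male rats of about 150 g, not fasted, five per group, were placed on a plate held at 55°±1° C. Licking or jumping latency was recorded before and at 10–90 min after dosing, with a 30 s cut-off. A positive response meant at least a doubling of reaction time, reported as positives/treated.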

[3] = Food consumption on daily oral dosing
Experimental: as §1, §2, §3, §4

[4] = oxyphenylbutazone 50 + compound 3 mg/kg i.p.
[5] = oxyphenylbutazone 50 + compound 3 mg/kg i.p., 10'
[6] = oxyphenylbutazone 50 + compound 3 mg/kg i.p., 20'
[7] = oxyphenylbutazone 50 + compound 3 mg/kg i.p., 30'
[8] = oxyphenylbutazone 50 + compound 3 mg/kg i.p., 45'
[9] = oxyphenylbutazone 50 + compound 3 mg/kg i.p., 60'
[10] = oxyphenylbutazone 50 + compound 3 mg/kg i.p., 90'
[11] = oxyphenylbutazone 50 + compound 10 mg/kg i.p.
[12] = oxyphenylbutazone 50 + compound 10 mg/kg i.p., 10'
[13] = oxyphenylbutazone 50 + compound 10 mg/kg i.p., 20'
[14] = oxyphenylbutazone 50 + compound 10 mg/kg i.p., 30'
[15] = oxyphenylbutazone 50 + compound 10 mg/kg i.p., 45'
[16] = oxyphenylbutazone 50 + compound 10 mg/kg i.p., 60'
[17] = oxyphenylbutazone 50 + compound 10 mg/kg i.p., 90'
[18] = oxyphenylbutazone 50 + compound 30 mg/kg i.p.
[19] = oxyphenylbutazone 50 + compound 30 mg/kg i.p., 10'
[20] = oxyphenylbutazone 50 + compound 30 mg/kg i.p., 20'
[21] = oxyphenylbutazone 50 + compound 30 mg/kg i.p., 30'
[22] = oxyphenylbutazone 50 + compound 30 mg/kg i.p., 45'
[23] = oxyphenylbutazone 50 + compound 30 mg/kg i.p., 60'
[24] = oxyphenylbutazone 50 + compound 30 mg/kg i.p., 90'

Compound: CCCN(CCC)C(=O)C(CCC(=O)O)NC(=O)c1ccc(C)c(C)c1 (stereo not drawn) [Compound C-30]
- body weight ([1]; 3 mg/kg os, time 0): 270.8 ± 8.3 g
- body weight ([1]; 3 mg/kg os, week 1): 310.2 ± 7.01 g
- body weight ([1]; 3 mg/kg os, week 2): 380.5 ± 6.5 g
- body weight ([1]; 3 mg/kg os, week 3): 409.7 ± 2.99 g
- body weight ([1]; 3 mg/kg os, week 4): 437.3 ± 55 g
- body weight ([1]; 10 mg/kg os, time 0): 271.4 ± 9.3 g
- body weight ([1]; 10 mg/kg os, week 1): 332.9 ± 5.7 g
- body weight ([1]; 10 mg/kg os, week 2): 383.2 ± 6.5 g
- body weight ([1]; 10 mg/kg os, week 3): 439.1 ± 4.3 g
- body weight ([1]; 10 mg/kg os, week 4): 470.5 ± 6.5 g
- body weight ([1]; 30 mg/kg os, time 0): 267.9 ± 7.7 g
- body weight ([1]; 30 mg/kg os, week 1): 315.7 ± 7.4 g
- body weight ([1]; 30 mg/kg os, week 2): 371.9 ± 7.9 g
- body weight ([1]; 30 mg/kg os, week 3): 437.1 ± 5.2 g
- body weight ([1]; 30 mg/kg os, week 4): 488.1 ± 6.4 g
- TOTAL positives [2, 4]: 11 x/30
- positive responses over number treated [2, 5]: 1/5
- positive responses over number treated [2, 6]: 1/5
- positive responses over number treated [2, 7]: 3/5
- positive responses over number treated [2, 8]: 2/5
- positive responses over number treated [2, 9]: 2/5
- positive responses over number treated [2, 10]: 2/5
- TOTAL positives [2, 11]: 12 x/30
- positive responses over number treated [2, 12]: 1/5
- positive responses over number treated [2, 13]: 2/5
- positive responses over number treated [2, 14]: 2/5
- positive responses over number treated [2, 15]: 3/5
- positive responses over number treated [2, 16]: 3/5
- positive responses over number treated [2, 17]: 2/5
- TOTAL positives [2, 18]: 20 x/30
- positive responses over number treated [2, 19]: 2/5
- positive responses over number treated [2, 20]: 3/5
- positive responses over number treated [2, 21]: 4/5
- positive responses over number treated [2, 22]: 4/5
- positive responses over number treated [2, 23]: 4/5
- positive responses over number treated [2, 24]: 3/5
- TOTAL positives ([2]; propoxyphene 10 + compound 0.3 mg/kg i.p.): 11 X/30
- positive responses over number treated ([2]; propoxyphene 10 + compound 0.3 mg/kg i.p., 10'): 2/5
- positive responses over number treated ([2]; propoxyphene 10 + compound 0.3 mg/kg i.p., 20'): 1/5
- positive responses over number treated ([2]; propoxyphene 10 + compound 0.3 mg/kg i.p., 30'): 3/5
- positive responses over number treated ([2]; propoxyphene 10 + compound 0.3 mg/kg i.p., 45'): 3/5
- positive responses over number treated ([2]; propoxyphene 10 + compound 0.3 mg/kg i.p., 60'): 2/5
- positive responses over number treated ([2]; propoxyphene 10 + compound 0.3 mg/kg i.p., 90'): 0/5
- TOTAL positives ([2]; propoxyphene 10 + compound 1 mg/kg i.p.): 19 X/30
- positive responses over number treated ([2]; propoxyphene 10 + compound 1 mg/kg i.p., 10'): 3/5
- positive responses over number treated ([2]; propoxyphene 10 + compound 1 mg/kg i.p., 20'): 4/5
- positive responses over number treated ([2]; propoxyphene 10 + compound 1 mg/kg i.p., 30'): 4/5
- positive responses over number treated ([2]; propoxyphene 10 + compound 1 mg/kg i.p., 45'): 4/5
- positive responses over number treated ([2]; propoxyphene 10 + compound 1 mg/kg i.p., 60'): 2/5
- positive responses over number treated ([2]; propoxyphene 10 + compound 1 mg/kg i.p., 90'): 2/5
- TOTAL positives ([2]; propoxyphene 10 + compound 3 mg/kg i.p.): 25 X/30
- positive responses over number treated ([2]; propoxyphene 10 + compound 3 mg/kg i.p., 10'): 3/5
- positive responses over number treated ([2]; propoxyphene 10 + compound 3 mg/kg i.p., 20'): 5/5
- positive responses over number treated ([2]; propoxyphene 10 + compound 3 mg/kg i.p., 30'): 5/5
- positive responses over number treated ([2]; propoxyphene 10 + compound 3 mg/kg i.p., 45'): 5/5
- positive responses over number treated ([2]; propoxyphene 10 + compound 3 mg/kg i.p., 60'): 4/5
- positive responses over number treated ([2]; propoxyphene 10 + compound 3 mg/kg i.p., 90'): 3/5
- food consumption ([3]; 3 mg/kg os, week 1): 193.7 ± 3.58 g/week
- food consumption ([3]; 3 mg/kg os, week 2): 233.2 ± 4.56 g/week
- food consumption ([3]; 3 mg/kg os, week 3): 187.1 ± 8.40 g/week
- food consumption ([3]; 3 mg/kg os, week 4): 204.0 ± 3.63 g/week
- food consumption ([3]; 10 mg/kg os, week 1): 219.8 ± 5.62 g/week
- food consumption ([3]; 10 mg/kg os, week 2): 264.3 ± 5.61 g/week
- food consumption ([3]; 10 mg/kg os, week 3): 234.5 ± 5.05 g/week
- food consumption ([3]; 10 mg/kg os, week 4): 234.6 ± 3.99 g/week
- food consumption ([3]; 30 mg/kg os, week 1): 233.7 ± 5.45 g/week
- food consumption ([3]; 30 mg/kg os, week 2): 267.9 ± 4.92 g/week
- food consumption ([3]; 30 mg/kg os, week 3): 247.0 ± 5.19 g/week
- food consumption ([3]; 30 mg/kg os, week 4): 244.5 ± 4.06 g/week

Compound: CCCCN(CCCC)C(=O)CCC(NC(=O)c1ccc(Cl)c(Cl)c1)C(=O)O [Compound D-2]
- TOTAL positives [2, 4]: 12 x/30
- positive responses over number treated [2, 5]: 2/5
- positive responses over number treated [2, 6]: 1/5
- positive responses over number treated [2, 7]: 2/5
- positive responses over number treated [2, 8]: 3/5
- positive responses over number treated [2, 9]: 3/5
- positive responses over number treated [2, 10]: 1/5
- TOTAL positives [2, 11]: 12 x/30
- positive responses over number treated [2, 12]: 1/5
- positive responses over number treated [2, 13]: 1/5
- positive responses over number treated [2, 14]: 3/5
- positive responses over number treated [2, 15]: 3/5
- positive responses over number treated [2, 16]: 2/5
- positive responses over number treated [2, 17]: 2/5
- TOTAL positives [2, 18]: 23 x/30
- positive responses over number treated [2, 19]: 3/5
- positive responses over number treated [2, 20]: 4/5
- positive responses over number treated [2, 21]: 4/5
- positive responses over number treated [2, 22]: 4/5
- positive responses over number treated [2, 23]: 4/5
- positive responses over number treated [2, 24]: 4/5
